The test system of the assay is MDA-MB-468 spheroids with HUVEC/MSC, viability. The assay is described as follows: Anticancer human tumor MDA-MB-468 cell line growth inhibition [PI3K].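 For all read-outs here: spheroids exposed to agents for seven days before readout.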 To be noted: for viability, T/C: stronger effect = lower value. From the text: Combinatorial screen of targeted agents with the PI3K inhibitors inavolisib, alpelisib, duvelisib, and copanlisib in multi-cell type tumor spheroids
A high-throughput screen of multi-cell type tumor spheroids was designed to identify active combinations of targeted small molecules and PI3K pathway inhibitors. Complex spheroids include a stromal component modeled by human endothelial cells (HUVEC) and fibroblasts modeled by human mesenchymal stem cells (MSCs). The concentration ranges selected for each drug and investigational agent were based upon clinically achievable concentrations if the clinical Cmax of the agent was known.
Compounds. The drugs and investigational agents: inavolisib (NSC800729), alpelisib (NSC765974), duvelisib (NSC772469), copanlisib (NSC816437), ipatasertib (NSC767898), afuresertib (NSC778305), talazoparib (NSC767125), sapanisertib (NSC764658), selumetinib (NSC741078), tovorafenib (DAY101, NSC766906), vemurafenib (NSC761431), ravoxertinib (NSC781343), sotorasib (NSC818433), MRTX1133 (NSC 836407), abemaciclib (NSC 768073), palbociclib (NSC758247), venetoclax (NSC 766270), SY5609 (NSC837396), enzalutamide (NSC755605), and darolutamide (NSC825331), were obtained from the National Cancer Institute (NCI) Developmental Therapeutics Program Chemical Repository. The FDA-approved anticancer drug set is available from the NCI Developmental Therapeutics Program. […] The stock solutions were prepared in dimethyl sulfoxide (DMSO, Sigma-Aldrich, St. Louis, MO, cat. D2650) at 800-fold the tested concentration and stored at -70 degrees C prior to their use. All drugs and investigational agents were tested over a range starting from a high concentration at or near the clinical Cmax and decreasing in half-log increments. If the clinical Cmax for an agent had not been determined, the highest concentration tested was 10 microM.
Cell Culture. All cells were maintained in an incubator at 37 degrees C and 5% CO2 with 95% humidity. The PDC lines were cultured according to standard operating procedures established by the NCI PDMR (https://pdmr.cancer.gov/sops/default.htm). All PDCs were thawed and cultured in Matrigel-coated flasks prepared with a working solution of 1X Ham's F-12 nutrient mix, without supplementation (Invitrogen, Waltham, MA, cat. 11765054), 100 U/mL penicillin-streptomycin (Invitrogen, cat. 15140122), and 2.5% Matrigel (Corning Inc., Corning, NY, cat. 354248) for the first three passages. The 354836-022-R-J1-PDC, 475296-252-R-J1-PDC, and 997726-040-R-J2-PDC lines were cultured in 6A media, which includes advanced DMEM/F-12 (Thermo Fisher Scientific, cat. 12634028), 10 mM HEPES (Thermo Fisher Scientific, cat. 15630080), 1X GlutaMAX supplement (Thermo Fisher Scientific, cat. 35050061), 0.1 mg/mL primocin (InvivoGen, San Diego, CA, cat. ant-pm-2), 10% defined fetal bovine serum, heat inactivated (HyClone Laboratories Inc., Logan, UT, cat. SH30070.03HI), 50% L-WRN conditioned media (ATCC, cat. CRL-3276), 1.25 mM N-Acetyl-L-cysteine (Sigma-Aldrich, cat. A9165), 10 mM nicotinamide (Sigma-Aldrich, cat. N0636), 1X B-27 supplement (Thermo Fisher Scientific, cat. 17504044), 1X N-2 supplement (Thermo Fisher Scientific, cat. 17502048), and 10 microM Y-27632 dihydrochloride (Tocris Bioscience, Bristol, United Kingdom, cat. 1254). The 624824-186-R-J2-PDC line was cultured in 6C/Colon 1B media, which includes all 6A media components plus 50 ng/mL human EGF recombinant protein (Thermo Fisher Scientific, cat. PHG0311). […]

Values joined by “and” are separate entries in the source; they are usually repeats but may differ in a detail not shown here. Equal entries are not always repeated.

What is called viability, T/C is the ratio of treated to control. What is called IC50 is the concentration at which inhibition is half-maximal. In the case of `C#Cc1c(F)ccc2cc(O)cc(-c3ncc4c(N5CC6CCC(C5)N6)nc(OCC56CCCN5CC(F)C6)nc4c3F)c12` (stereo unspecified), the viability, T/C by setting is: (compound 0.0316 µM) 81.9% [middle of 4 runs]; (compound 0.1 µM) 92.6% [middle of 4 runs]; (compound 0.316 µM) 92.2% [middle of 4 runs]; (compound 1 µM) 100% [middle of 4 runs]; (compound 10 µM) 55.1% [middle of 4 runs]. Also, for the setting “curve of compound”, the IC50 was > 10 µM and 9.96 µM.
Consider `C=CC(=O)N1CCN(c2nc(=O)n(-c3c(C)ccnc3C(C)C)c3nc(-c4c(O)cccc4F)c(F)cc23)C(C)C1` (stereo unspecified), for which the viability, T/C (compound 0.0316 µM) was 94.1% [middle of 4 runs]; the viability, T/C (compound 0.1 µM) was 96.2% [middle of 4 runs]; the viability, T/C (compound 1 µM) was 107% (2×) and 89.3% and 105%; the viability, T/C (compound 3.16 µM) was 101% [middle of 4 runs]; the viability, T/C (compound 10 µM) is 78.6% [middle of 4 runs]. Further, under “curve of compound”, the IC50 is above 10 µM.
For the molecule `CC(C)NCC(C(=O)N1CCN(c2ncnc3c2C(C)CC3O)CC1)c1ccc(Cl)cc1` (stereo unspecified), the viability, T/C runs as follows: (compound 0.0316 µM) 89.5% [middle of 4 runs]; (compound 0.1 µM) 81.3% [middle of 4 runs]; (compound 1 µM) 54.2% [middle of 4 runs]; (compound 3.16 µM) 32.4% [middle of 4 runs]; (compound 10 µM) 26.4% and 22.6% (2×) and 27%. The IC50 (curve of compound) was 1.29 µM [middle of 4 runs].
`CC(Cn1ccc(-c2ccc(C#N)c(Cl)c2)n1)NC(=O)c1cc(C(C)O)[nH]n1` (stereo unspecified): the viability, T/C (compound 0.0316 µM) is 98% [middle of 4 runs]; the viability, T/C (compound 0.1 µM) is 87.6% [middle of 4 runs]; the viability, T/C (compound 0.316 µM) is 87.2% and 90.1% and 102% (2×); the viability, T/C (compound 1 µM) is 96.8% [middle of 4 runs]; the viability, T/C (compound 3.16 µM) is 83.8% [middle of 4 runs]. In addition, the IC50 (curve of compound) was above 10 µM.
With `CC(Nc1ncnc2nc[nH]c12)c1cc2cccc(Cl)c2c(=O)n1-c1ccccc1` (stereo unspecified), the viability, T/C (compound 0.0316 µM) is 94% [middle of 8 runs]; the viability, T/C (compound 0.1 µM) was 93.1% [middle of 8 runs]; the viability, T/C (compound 0.316 µM) is 81% [middle of 8 runs]; the viability, T/C (compound 1 µM) is 71.2% [middle of 8 runs]; the viability, T/C (compound 3.16 µM) is 55.5% [middle of 8 runs]; the viability, T/C (compound 10 µM) is 40.7% [middle of 8 runs]. Besides, the IC50 (compound alone, run of 05/09/2023) is 4.95 µM [middle of 8 runs].
In the case of `CC1(C)CCC(CN2CCN(c3ccc(C(=O)NS(=O)(=O)c4ccc(NCC5CCOCC5)c([N+](=O)[O-])c4)c(Oc4cnc5[nH]ccc5c4)c3)CC2)=C(c2ccc(Cl)cc2)C1`, the viability, T/C is 92.6% [middle of 4 runs] (compound 0.0316 µM); 88% [middle of 4 runs] (compound 0.1 µM); 97.9% [middle of 4 runs] (compound 0.316 µM); 99.4% [middle of 4 runs] (compound 1 µM); 72.8% [middle of 4 runs] (compound 3.16 µM).
Regarding `CC1(C)CCC(Nc2ncc(C(F)(F)F)c(-c3c[nH]c4c(P(C)(C)=O)c(C#N)ccc34)n2)CN1` (stereo unspecified), the viability, T/C was 12% [middle of 4 runs] (compound 0.0316 µM); 10.6% [middle of 4 runs] (compound 0.1 µM); 9.01% [middle of 4 runs] (compound 0.316 µM); 7.86% [middle of 4 runs] (compound 1 µM); 8.98% [middle of 4 runs] (compound 3.16 µM); 1.71% [middle of 4 runs] (compound 10 µM). Moreover, for the setting “curve of compound”, the IC50 was below 0.0316 µM.
Turning to `CCCS(=O)(=O)Nc1ccc(F)c(C(=O)c2c[nH]c3ncc(-c4ccc(Cl)cc4)cc23)c1F`, the viability, T/C (compound 0.316 µM) was 107% [middle of 4 runs]; the viability, T/C (compound 1 µM) is 97.7% [middle of 4 runs]; the viability, T/C (compound 3.16 µM) is 78.9% [middle of 4 runs]; the viability, T/C (compound 10 µM) was 16.4% [middle of 4 runs]. Besides, for the setting “curve of compound”, the IC50 is 5.5 µM [middle of 4 runs].
As for `CNC(=O)c1ccc(N2C(=S)N(c3ccc(C#N)c(C(F)(F)F)c3)C(=O)C2(C)C)cc1F`, the viability, T/C is, setting by setting: (compound 0.0316 µM) 98% [middle of 4 runs]; (compound 0.1 µM) 97% [middle of 4 runs]; (compound 0.316 µM) 97% [middle of 4 runs]; (compound 1 µM) 102% [middle of 4 runs]; (compound 3.16 µM) 93.3% [middle of 4 runs]; (compound 10 µM) 72.8% [middle of 4 runs]. Further, under “curve of compound”, the IC50 was above 10 µM.
In the case of `C[C@@H](NC(=O)c1ncnc(N)c1Cl)c1ncc(C(=O)Nc2cc(C(F)(F)F)c(Cl)cn2)s1`, the viability, T/C runs as follows: (compound 0.0316 µM) 95.6% [middle of 4 runs]; (compound 0.1 µM) 102% [middle of 4 runs]; (compound 1 µM) 99.1% [middle of 4 runs]. Besides, the IC50 (curve of compound) was above 10 µM.
For `Cn1ncc(Cl)c1-c1cc(C(=O)NC(CN)Cc2cccc(F)c2)sc1Cl` (stereo unspecified), the viability, T/C reads like this: (compound 0.0316 µM) 86.1% [middle of 4 runs]; (compound 0.1 µM) 69.6% and 66.7% (2×) and 83%; (compound 0.316 µM) 53.9% [middle of 4 runs]; (compound 1 µM) 34.2% [middle of 4 runs]; (compound 3.16 µM) 29.6% [middle of 4 runs]; (compound 10 µM) 15.4% [middle of 4 runs]. Also, the IC50 (curve of compound) was 462 nM [middle of 4 runs].
For `Cn1nccc1Nc1nccc(-c2ccn(C(CO)c3ccc(Cl)c(F)c3)c(=O)c2)n1` (stereo unspecified), the viability, T/C is 92.3% [middle of 4 runs] (compound 0.0316 µM), 92.9% [middle of 4 runs] (compound 0.1 µM), 101% [middle of 4 runs] (compound 0.316 µM) and 81.9% [middle of 4 runs] (compound 10 µM). Also, the IC50 (curve of compound) is above 10 µM.

Values taken from PubChem BioAssay AID1963960 (Molecular Pharmacology Branch, DTP, NCI, 2024).
